Laboratory results published in PMC6704710, “Preclinical evaluation of 3D185, a novel potent inhibitor of FGFR1/2/3 and CSF-1R, in FGFR-dependent and macrophage-dominant cancer models” (Journal of Experimental & Clinical Cancer Research : CR, 2019).

What was measured:
[1] = tested on: 20 additional tumor cell lines with low expression or activation of FGFR and CSF-1R; assay: Cell proliferation assay, non-dependent panel; assay type: cell-based; settings: 20 cell lines
Experimental: (§1) The cancer cell lines indicated in Figure 3 were seeded in 96-well plates at a low density in growth medium. The next day, appropriate controls or the designated concentrations of the compounds were added to each well, and the cells were incubated for 72 h. HUVECs (passage 3) were seeded in 96-well plates in growth medium overnight and transferred to serum-free medium for 24 h. The following day, appropriate controls or the designated concentrations of the compounds were added to each well, and 100 ng/mL growth factor (bFGF or VEGF) was added to the indicated wells. The cells were incubated for 48 h. Finally, cell proliferation was determined using a sulforhodamine B (SRB) assay or a cell counting kit-8 (CCK-8) assay. […] IC50 values for proliferation curves were calculated using a 4-parameter logistic nonlinear regression model with SoftMax Pro Software (Molecular Devices, San Jose, USA).

[2] = target: T1, JNK1α1(h) (Homo sapiens, UniProt P45983); assay: Eurofins kinase panel; assay type: biochemical; settings: read-out: Inhibition rate (%)
T1 construct: purchased Eurofins (KinaseProfiler)
T1 sequence (P45983 1-384 isoform P45983-2): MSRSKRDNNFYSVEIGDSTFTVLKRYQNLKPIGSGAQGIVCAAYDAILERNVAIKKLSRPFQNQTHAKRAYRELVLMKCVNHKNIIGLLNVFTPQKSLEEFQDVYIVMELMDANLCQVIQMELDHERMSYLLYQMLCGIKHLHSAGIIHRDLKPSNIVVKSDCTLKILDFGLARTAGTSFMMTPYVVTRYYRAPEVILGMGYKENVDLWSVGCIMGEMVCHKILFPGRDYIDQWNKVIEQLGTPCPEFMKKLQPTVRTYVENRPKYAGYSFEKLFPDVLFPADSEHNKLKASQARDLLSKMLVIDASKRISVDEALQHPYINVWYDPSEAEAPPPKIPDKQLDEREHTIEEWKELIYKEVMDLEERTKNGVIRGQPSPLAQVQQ

[3] = target: T2, HIPK4(h) (Homo sapiens, UniProt Q8NE63); assay: Eurofins kinase panel; assay type: biochemical; settings: read-out: Inhibition rate (%)
T2 construct: purchased Eurofins (KinaseProfiler)
T2 sequence (Q8NE63 1-616): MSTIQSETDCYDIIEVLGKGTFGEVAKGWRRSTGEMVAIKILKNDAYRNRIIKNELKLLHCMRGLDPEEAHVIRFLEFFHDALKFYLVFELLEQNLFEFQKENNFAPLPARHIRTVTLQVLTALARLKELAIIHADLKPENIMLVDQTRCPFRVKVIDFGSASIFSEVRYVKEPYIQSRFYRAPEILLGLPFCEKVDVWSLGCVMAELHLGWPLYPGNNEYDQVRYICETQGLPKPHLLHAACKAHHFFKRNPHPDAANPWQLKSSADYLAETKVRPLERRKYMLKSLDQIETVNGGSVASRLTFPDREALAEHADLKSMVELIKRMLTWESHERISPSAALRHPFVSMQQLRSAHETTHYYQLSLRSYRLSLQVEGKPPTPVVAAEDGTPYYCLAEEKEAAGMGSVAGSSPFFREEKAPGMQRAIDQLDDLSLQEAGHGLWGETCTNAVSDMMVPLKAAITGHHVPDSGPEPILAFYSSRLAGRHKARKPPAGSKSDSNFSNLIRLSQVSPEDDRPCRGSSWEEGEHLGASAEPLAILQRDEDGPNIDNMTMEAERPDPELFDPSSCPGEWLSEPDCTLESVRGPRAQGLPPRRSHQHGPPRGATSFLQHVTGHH

[4] = target: FGFR1(V561M)(h) (Homo sapiens, UniProt P11362, V561M); assay: Eurofins kinase panel; assay type: biochemical
Sequence of FGFR1(V561M)(h) (P11362 22-822 V561M): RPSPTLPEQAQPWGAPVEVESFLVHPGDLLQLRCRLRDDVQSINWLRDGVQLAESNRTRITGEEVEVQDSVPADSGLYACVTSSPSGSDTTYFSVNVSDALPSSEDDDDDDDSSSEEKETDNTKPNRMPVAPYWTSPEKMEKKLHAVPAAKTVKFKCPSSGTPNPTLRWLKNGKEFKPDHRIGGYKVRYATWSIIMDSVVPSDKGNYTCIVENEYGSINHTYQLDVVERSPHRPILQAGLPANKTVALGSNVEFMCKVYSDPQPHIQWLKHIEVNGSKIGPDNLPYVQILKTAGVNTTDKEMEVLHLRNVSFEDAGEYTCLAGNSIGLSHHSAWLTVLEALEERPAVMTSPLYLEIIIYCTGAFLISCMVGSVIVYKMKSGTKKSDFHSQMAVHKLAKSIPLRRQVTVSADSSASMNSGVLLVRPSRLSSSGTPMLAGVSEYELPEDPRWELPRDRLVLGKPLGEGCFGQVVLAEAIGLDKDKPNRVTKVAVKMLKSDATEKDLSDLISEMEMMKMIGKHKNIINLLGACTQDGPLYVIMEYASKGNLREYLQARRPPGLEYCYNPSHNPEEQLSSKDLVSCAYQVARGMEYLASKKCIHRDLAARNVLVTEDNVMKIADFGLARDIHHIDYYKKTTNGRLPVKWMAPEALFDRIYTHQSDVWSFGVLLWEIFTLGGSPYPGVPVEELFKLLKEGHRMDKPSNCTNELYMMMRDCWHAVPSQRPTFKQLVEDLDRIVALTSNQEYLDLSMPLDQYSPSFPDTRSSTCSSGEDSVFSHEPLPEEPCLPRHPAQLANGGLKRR

[5] = tested on: M-NFS-60; assay: Cell proliferation assay; assay type: cell-based, mouse; settings: Mus musculus; 72 h, mean ± SD
Experimental: as §1

[6] = tested on: BMDM (CSF-2); assay: Macrophage survival (CCK-8); assay type: cell-based, murine; settings: Mus musculus, BMDM, 168 h; 7 days
Experimental: Murine bone marrow-derived macrophages (BMDMs) and PBMCs were used for cell viability studies. BMDMs were harvested by flushing the tibias and femurs of 6- to 8-week-old C57BL/6 mice and depleting red blood cells (RBCs) by RBC lysis (Biogems). For BMDM survival, the cells were cultured for 7 days in RPMI 1640 containing 10% fetal bovine serum (FBS), 100 U/mL penicillin, 100 μg/mL streptomycin and 100 ng/mL mouse CSF-1 (or CSF-2) with or without the tested compounds. PBMCs were obtained from HemaCare and cultured for 7 days in RPMI 1640 containing 10% fetal bovine serum (FBS), 100 U/mL penicillin, 100 μg/mL streptomycin and 100 ng/mL human CSF-1 (or CSF-2) with or without the tested compounds. Cell viability was measured using the CCK-8 assay. For IL-4/IL-13-induced macrophage survival analysis, viable cells were counted by trypan blue exclusion.

[7] = target: T3, CDK7/cyclinH/MAT1(h) (Homo sapiens, UniProt P50613); assay: Eurofins kinase panel; assay type: biochemical; settings: read-out: Inhibition rate (%)
T3 construct: purchased Eurofins (KinaseProfiler)
T3 sequence (P50613 whole entry): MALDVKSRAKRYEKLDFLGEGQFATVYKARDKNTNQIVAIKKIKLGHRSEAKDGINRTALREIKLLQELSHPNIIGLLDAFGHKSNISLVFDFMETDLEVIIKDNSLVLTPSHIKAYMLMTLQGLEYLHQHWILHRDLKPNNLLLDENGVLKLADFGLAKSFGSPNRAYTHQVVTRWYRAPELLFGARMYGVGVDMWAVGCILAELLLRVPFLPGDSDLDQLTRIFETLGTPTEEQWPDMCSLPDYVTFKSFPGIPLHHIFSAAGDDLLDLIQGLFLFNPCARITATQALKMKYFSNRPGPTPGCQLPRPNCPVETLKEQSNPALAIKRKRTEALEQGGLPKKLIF
T3 sequence (P51946 whole entry partner): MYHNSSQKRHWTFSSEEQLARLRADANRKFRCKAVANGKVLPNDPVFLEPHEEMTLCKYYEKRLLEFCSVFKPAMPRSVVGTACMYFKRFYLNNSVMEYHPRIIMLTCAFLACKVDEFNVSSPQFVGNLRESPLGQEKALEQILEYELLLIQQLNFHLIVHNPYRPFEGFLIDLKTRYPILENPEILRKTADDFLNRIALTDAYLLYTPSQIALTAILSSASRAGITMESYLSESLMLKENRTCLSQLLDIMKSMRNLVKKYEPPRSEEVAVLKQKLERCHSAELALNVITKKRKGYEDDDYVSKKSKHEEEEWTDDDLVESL
T3 sequence (P51948 whole entry partner): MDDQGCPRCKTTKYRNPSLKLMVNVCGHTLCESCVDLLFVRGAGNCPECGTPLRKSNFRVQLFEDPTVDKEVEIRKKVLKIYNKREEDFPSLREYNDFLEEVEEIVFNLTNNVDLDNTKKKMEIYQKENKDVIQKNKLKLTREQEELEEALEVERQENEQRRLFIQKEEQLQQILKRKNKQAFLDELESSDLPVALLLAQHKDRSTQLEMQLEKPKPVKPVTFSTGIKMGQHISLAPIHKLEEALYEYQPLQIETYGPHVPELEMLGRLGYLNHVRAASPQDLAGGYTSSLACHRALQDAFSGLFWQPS

[8] = target: T4, PKBα(h) (Homo sapiens, UniProt P31749); assay: Eurofins kinase panel; assay type: biochemical; settings: read-out: Inhibition rate (%)
T4 construct: purchased Eurofins (KinaseProfiler)
T4 sequence (P31749 whole entry): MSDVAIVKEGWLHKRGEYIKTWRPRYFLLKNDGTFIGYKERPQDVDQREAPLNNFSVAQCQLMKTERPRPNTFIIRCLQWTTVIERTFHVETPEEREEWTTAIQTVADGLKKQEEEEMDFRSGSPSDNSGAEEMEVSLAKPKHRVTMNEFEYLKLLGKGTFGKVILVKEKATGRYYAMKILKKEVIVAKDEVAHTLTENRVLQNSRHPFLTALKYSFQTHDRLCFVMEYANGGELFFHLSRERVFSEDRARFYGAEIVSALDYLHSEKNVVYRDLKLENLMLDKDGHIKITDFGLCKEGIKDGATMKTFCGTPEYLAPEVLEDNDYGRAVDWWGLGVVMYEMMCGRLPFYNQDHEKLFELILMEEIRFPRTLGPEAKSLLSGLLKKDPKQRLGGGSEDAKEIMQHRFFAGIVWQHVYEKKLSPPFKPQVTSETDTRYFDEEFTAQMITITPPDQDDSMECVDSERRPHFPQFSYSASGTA

[9] = target: T5, ACK1(h) (Homo sapiens, UniProt Q07912); assay: Eurofins kinase panel; assay type: biochemical; settings: read-out: Inhibition rate (%)
T5 construct: purchased Eurofins (KinaseProfiler)
T5 sequence (Q07912 whole entry): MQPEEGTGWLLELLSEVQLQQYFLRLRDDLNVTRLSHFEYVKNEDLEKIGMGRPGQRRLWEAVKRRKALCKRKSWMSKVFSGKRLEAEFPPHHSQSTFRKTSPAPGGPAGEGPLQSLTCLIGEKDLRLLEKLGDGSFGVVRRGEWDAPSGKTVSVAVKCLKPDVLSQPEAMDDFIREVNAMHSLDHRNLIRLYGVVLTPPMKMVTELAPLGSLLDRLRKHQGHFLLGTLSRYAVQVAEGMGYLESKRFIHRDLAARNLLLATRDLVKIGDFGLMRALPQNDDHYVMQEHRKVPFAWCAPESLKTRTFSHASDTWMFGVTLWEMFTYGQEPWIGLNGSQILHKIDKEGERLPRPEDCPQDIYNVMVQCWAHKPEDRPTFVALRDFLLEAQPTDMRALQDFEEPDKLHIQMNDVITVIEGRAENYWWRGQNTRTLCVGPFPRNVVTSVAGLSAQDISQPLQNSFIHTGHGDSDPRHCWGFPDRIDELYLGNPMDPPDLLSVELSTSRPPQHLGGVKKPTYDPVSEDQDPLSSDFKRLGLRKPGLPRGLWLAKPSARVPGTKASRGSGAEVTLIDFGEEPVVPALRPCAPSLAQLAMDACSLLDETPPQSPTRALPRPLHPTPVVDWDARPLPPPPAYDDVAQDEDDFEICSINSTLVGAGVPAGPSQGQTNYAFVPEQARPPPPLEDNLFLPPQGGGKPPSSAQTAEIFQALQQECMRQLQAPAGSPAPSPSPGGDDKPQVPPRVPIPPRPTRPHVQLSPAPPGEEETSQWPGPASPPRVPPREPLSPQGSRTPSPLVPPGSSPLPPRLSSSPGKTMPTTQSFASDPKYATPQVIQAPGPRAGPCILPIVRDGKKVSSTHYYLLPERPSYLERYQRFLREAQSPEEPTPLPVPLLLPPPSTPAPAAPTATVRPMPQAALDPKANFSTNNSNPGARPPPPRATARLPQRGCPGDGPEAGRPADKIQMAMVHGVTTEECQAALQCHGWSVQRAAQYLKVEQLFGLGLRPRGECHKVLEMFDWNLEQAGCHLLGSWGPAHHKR

[10] = target: FGFR2(N549H)(h) (Homo sapiens, UniProt P21802, N549H); assay: Eurofins kinase panel; assay type: biochemical
Sequence of FGFR2(N549H)(h) (P21802 22-821 N549H): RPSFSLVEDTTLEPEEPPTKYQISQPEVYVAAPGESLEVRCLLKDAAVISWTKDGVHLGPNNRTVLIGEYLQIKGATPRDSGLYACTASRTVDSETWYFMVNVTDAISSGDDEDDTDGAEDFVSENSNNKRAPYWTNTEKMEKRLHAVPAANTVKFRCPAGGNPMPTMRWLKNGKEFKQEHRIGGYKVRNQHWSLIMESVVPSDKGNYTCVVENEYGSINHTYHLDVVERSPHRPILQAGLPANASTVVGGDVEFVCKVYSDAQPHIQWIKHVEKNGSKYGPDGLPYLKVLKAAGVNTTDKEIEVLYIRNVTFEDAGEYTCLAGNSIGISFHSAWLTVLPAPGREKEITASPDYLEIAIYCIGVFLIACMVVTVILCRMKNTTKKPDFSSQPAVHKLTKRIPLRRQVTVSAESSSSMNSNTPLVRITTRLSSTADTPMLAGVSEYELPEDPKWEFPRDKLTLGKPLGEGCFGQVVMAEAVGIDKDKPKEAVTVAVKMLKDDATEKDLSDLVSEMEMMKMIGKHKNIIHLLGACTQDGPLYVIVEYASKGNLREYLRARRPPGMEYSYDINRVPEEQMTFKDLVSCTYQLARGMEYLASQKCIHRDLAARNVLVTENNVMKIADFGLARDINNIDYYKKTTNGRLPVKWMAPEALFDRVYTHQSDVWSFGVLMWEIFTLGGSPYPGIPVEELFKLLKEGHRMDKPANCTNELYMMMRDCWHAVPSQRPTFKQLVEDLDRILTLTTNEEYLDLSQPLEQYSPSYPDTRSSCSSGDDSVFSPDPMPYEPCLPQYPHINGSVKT

[11] = target: T6, PKCι(h) (Homo sapiens, UniProt P41743); assay: Eurofins kinase panel; assay type: biochemical; settings: read-out: Inhibition rate (%)
T6 construct: purchased Eurofins (KinaseProfiler)
T6 sequence (P41743 1-596): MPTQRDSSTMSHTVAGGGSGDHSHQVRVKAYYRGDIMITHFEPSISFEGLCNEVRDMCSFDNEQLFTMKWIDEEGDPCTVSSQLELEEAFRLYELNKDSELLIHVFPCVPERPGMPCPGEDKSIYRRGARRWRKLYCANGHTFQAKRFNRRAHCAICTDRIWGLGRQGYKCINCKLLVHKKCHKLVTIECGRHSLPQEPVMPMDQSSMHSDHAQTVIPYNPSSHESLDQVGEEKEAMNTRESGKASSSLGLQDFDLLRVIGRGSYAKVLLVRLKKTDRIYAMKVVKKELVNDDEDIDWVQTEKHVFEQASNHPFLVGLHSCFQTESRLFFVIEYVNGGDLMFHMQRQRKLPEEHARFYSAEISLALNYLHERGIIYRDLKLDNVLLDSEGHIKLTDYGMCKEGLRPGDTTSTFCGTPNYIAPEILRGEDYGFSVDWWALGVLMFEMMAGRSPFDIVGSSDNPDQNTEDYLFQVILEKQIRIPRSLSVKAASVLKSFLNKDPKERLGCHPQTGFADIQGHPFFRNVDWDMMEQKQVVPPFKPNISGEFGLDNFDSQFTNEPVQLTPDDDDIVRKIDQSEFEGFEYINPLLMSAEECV

[12] = estimated from 372-kinase panel

COc1cc(OC)c(Cl)c(-c2ccc3c(NC(=O)c4ccc(N5CCNC(C)(C)C5)cc4)n[nH]c3n2)c1Cl [3D185]
IC50 [1]: > 1000 nM | inhibition at 0.01 µM ([2]; 10 nM): -3% | inhibition at 0.1 µM ([2]; 100 nM): -4% | inhibition at 1 µM ([2]; 1000 nM): 3% | inhibition at 0.01 µM ([3]; 10 nM): 1% | inhibition at 0.1 µM ([3]; 100 nM): -17% | inhibition at 1 µM ([3]; 1000 nM): 16% | IC50 [4, 12]: < 10 nM | inhibition at 0.01 µM ([4]; read-out: Inhibition rate (%)): 58% | inhibition at 0.1 µM ([4]; read-out: Inhibition rate (%)): 94% | inhibition at 1 µM ([4]; read-out: Inhibition rate (%)): 100% | IC50 [5]: 16.7 ± 2.5 nM | IC50 [6]: > 1000 nM | inhibition at 0.01 µM ([7]; 10 nM): 12% | inhibition at 0.1 µM ([7]; 100 nM): 11% | inhibition at 1 µM ([7]; 1000 nM): 11% | inhibition at 0.01 µM ([8]; 10 nM): -6% | inhibition at 0.1 µM ([8]; 100 nM): -8% | inhibition at 1 µM ([8]; 1000 nM): -7% | inhibition at 0.01 µM ([9]; 10 nM): 1% | inhibition at 0.1 µM ([9]; 100 nM): 37% | inhibition at 1 µM ([9]; 1000 nM): 90% | IC50 [10, 12]: < 10 nM | inhibition at 0.01 µM ([10]; read-out: Inhibition rate (%)): 96% | inhibition at 0.1 µM ([10]; read-out: Inhibition rate (%)): 98% | inhibition at 1 µM ([10]; read-out: Inhibition rate (%)): 100% | inhibition at 0.01 µM ([11]; 10 nM): -1% | inhibition at 0.1 µM ([11]; 100 nM): 0% | inhibition at 1 µM ([11]; 1000 nM): -1%
